Laboratory results: BindingDB's records for doi:10.1124/mol.112.080291 (University of California San Diego, 2014)
Several values for one entry are separate records, joined by “and”; a condition that tells them apart may be missing. Equal values may be shown once.

Key:
Assay in all cases: Synthesizing Selective Agonists for the ?7 Nicotinic Receptor with in situ Click-Chemistry on Acetylcholine Binding Protein Templates.
[1] = biological target: Acetylcholine-binding protein (Lymnaea stagnalis, UniProt P58154); conditions: pH 7.4; 20 °C
Protocol: (§1) Assay Description 2 Assays used to generate Ki or EC50 values. 1) SPA Assay - Quick screen binding assays were performed using 100 l of 0.2 mg/ml anti-mouse SPA antibody-binding beads (Amersham Biosciences) mixed with 33.6 g of monoclonal anti-FLAG M2 antibody from mouse (Sigma) in 0.1 M NaPO4 buffer, pH 7.0 (SPA mixture). Media (5l) collected 2 days after transfection were added to the mixture and finally 10 l of (+)-[3H]epibatidine (PerkinElmer Life Sciences) was added at a final concentration of 10 nM. Solutions were each counted for 1 min on either a Beckman LS 6500 liquid scintillation counter or Wallac 1450 Microbeta Trilux. Negative and positive controls consisted of media (5 l) from the respective transfections. Nonexpressing mutants were transfected and verified de novo in triplicate. Western immunoblots were also performed upon media (15 l) from transfections to verify the lack of expression. Competition curves and direct binding were measured following the protocol p

[2] = biological target: Neuronal acetylcholine receptor subunit alpha-4 (Homo sapiens, UniProt P43681); conditions: pH 7.4; 37 °C
Protocol: as §1

[3] = biological target: T1, 5-hydroxytryptamine receptor 3A (Mus musculus, UniProt P23979); conditions: pH 7.4; 37 °C
T1 sequence (P23979 whole entry): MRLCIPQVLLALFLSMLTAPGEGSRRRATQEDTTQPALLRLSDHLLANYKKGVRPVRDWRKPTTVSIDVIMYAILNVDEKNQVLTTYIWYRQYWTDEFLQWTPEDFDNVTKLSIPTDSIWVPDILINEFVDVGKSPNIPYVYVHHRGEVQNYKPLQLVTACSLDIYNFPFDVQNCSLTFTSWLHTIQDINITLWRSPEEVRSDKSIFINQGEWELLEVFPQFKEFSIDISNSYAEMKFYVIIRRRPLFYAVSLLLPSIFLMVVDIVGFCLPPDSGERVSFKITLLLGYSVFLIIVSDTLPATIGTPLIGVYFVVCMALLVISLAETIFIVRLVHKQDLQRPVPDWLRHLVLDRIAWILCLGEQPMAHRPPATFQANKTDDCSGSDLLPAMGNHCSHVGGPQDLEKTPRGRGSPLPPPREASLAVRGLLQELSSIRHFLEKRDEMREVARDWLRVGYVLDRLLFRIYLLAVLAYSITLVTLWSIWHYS
Protocol: as §1

[4] = biological target: Neuronal acetylcholine receptor subunit alpha-7 (Homo sapiens, UniProt P36544); conditions: pH 7.4; 37 °C
Protocol: as §1

[5] = biological target: T2, Soluble acetylcholine receptor (Aplysia californica, UniProt Q8WSF8); conditions: pH 7.4; 20 °C
T2 sequence (Q8WSF8 whole entry): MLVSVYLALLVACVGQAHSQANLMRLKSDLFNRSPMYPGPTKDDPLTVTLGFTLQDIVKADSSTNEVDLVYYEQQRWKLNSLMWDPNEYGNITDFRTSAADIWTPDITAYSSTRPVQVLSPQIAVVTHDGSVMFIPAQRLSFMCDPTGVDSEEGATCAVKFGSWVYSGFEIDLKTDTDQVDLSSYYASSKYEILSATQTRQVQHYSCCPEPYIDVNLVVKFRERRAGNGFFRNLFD
Protocol: as §1

Sequence of Acetylcholine-binding protein (P58154 whole entry): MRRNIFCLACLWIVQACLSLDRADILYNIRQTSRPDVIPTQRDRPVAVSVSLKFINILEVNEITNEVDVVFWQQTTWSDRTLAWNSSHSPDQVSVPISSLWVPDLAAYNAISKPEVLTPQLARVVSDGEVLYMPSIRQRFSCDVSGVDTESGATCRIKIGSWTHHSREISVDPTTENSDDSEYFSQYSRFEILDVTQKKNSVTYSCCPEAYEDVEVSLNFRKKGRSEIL
Sequence of Neuronal acetylcholine receptor subunit alpha-4 (P43681 whole entry): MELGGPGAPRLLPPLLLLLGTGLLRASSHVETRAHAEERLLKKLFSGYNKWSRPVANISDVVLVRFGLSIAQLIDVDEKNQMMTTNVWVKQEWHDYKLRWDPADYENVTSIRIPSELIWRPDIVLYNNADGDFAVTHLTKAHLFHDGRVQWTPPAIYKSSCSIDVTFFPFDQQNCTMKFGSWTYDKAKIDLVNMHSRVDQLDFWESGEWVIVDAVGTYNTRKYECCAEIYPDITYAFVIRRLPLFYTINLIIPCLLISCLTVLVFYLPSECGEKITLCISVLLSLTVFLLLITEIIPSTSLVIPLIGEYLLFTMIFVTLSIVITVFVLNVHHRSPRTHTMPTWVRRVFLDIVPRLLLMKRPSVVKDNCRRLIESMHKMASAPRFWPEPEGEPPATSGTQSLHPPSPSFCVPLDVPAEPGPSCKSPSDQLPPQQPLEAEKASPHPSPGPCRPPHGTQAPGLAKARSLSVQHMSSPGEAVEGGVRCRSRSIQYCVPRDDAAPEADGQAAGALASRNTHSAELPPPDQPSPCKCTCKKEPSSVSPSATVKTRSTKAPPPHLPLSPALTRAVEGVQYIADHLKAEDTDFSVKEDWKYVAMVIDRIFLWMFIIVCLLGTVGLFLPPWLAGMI
Sequence of Neuronal acetylcholine receptor subunit alpha-7 (P36544 whole entry): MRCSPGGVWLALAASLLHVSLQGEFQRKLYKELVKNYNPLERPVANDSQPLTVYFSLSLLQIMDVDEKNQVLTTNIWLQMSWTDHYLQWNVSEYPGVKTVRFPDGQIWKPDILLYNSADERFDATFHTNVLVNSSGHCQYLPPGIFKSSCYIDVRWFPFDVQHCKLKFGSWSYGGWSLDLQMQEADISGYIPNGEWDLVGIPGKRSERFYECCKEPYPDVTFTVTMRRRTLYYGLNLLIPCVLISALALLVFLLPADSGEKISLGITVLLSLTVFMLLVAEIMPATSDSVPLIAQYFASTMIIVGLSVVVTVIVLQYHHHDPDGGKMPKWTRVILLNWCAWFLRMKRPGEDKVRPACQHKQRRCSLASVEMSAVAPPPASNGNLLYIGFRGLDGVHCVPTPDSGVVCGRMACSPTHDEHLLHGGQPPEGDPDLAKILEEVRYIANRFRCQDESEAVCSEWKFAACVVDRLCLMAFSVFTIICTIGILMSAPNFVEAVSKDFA

| Structure (SMILES) | Ki [1] | Ki [2] | Ki [3] | EC50 [4] | Ki [5] |
| --- | --- | --- | --- | --- | --- |
| CN1[C@@H]2CC[C@H]1C[C@H](n1cc(CNC(=O)N3c4ccccc4CCc4ccccc43)nn1)C2 [23t] | > 5 µM | > 30 µM | > 30 µM | > 30 µM | 1.3 µM and 1.02 µM and > 5 µM |
| Cn1nncc1COc1cc(=O)n(C)c2ccccc12 [alpha7 agonists 1'] | 0.06 µM | 30 µM | > 30 µM | 6 µM | 1.4 µM and 0.17 µM |
